Values after ≈ are worked out from the molar mass of the structure shown.
What was measured:
[1] = tested on: L1210 murine leukemia cells; assay: Cytotoxicity to L1210 murine leukemia cells; assay type: cell-based; settings: Mus musculus
[2] = Lethal toxicity to the aquatic invertebrate Ceriodaphnia dubia (acute 48 hr and chronic 7 day); settings: in vivo

SMILES	IC50 [1]	LC50 at 48 h [2]	LC50 at 168 h [2]
Nc1ncnc2c([C@@H]3O[C@H](CO[C@H]4O[C@H](CO)[C@@H](O)[C@H](O)[C@H]4O)[C@@H](O)[C@H]3O)c[nH]c12 [Compound 1, 9-deazaadenosine 5'-α-D-glucopyranoside]	0.01 µg/mL (≈ 0.0233 µM)	0.5 µg/mL (≈ 1.17 µM)	0.3 µg/mL (≈ 0.7 µM)
Nc1ncnc2c([C@@H]3O[C@H](CO)[C@@H](O)[C@H]3O)c[nH]c12 [Compound 2, 9-deazaadenosine]	0.002 µg/mL (≈ 0.00751 µM)	0.3 µg/mL (≈ 1.13 µM)	0.1 µg/mL (≈ 0.376 µM)
